In patent publication US20250186604A1, “ANTI-PSMA ANTIBODY CONJUGATES” (ADC THERAPEUTICS SA, priority 2023, published 2025):
Starred links: 1 amine or outer side, 2 acyl side, 3 side chain; linkers in the order of their positions; H or OH if unused. Non-standard residues stand in square brackets, D forms with d. Residues, ends and D or L forms follow the SMILES beside them. *: point of attachment. Exatecan = CC[C@@]1(O)C(=O)OCc2c1cc1n(c2=O)Cc2c-1nc1cc(F)c(C)c3c1c2[C@@H](N*)CC3; Propanoyl(3-maleimido) = O=C1C=CC(=O)N1CCC(=O)*; PABC = O=C(OCc1ccc(N[*:1])cc1)[*:2]

Legend:
[1] = Aggregation during conjugation to a test antibody (% monomer by SEC); type: physicochemical; details: drug linker conjugated to a test antibody
Procedure: 2 mg of a test monoclonal antibody at 8.87 mg/ml was pH adjusted with 5% 0.5 M Tris, 0.025 M EDTA, pH 8.5 and reduced with 2.3 mol. eq. TCEP and then conjugated with 6mol. eq. drug linker. After buffer exchange into 30 mM Histidine, 175 mM Sucrose pH 6.0/PBS, the drug to antibody ratio (DAR) was by HIC/LC-MS and % Monomer by size exclusion chromatography (SEC). Percentage monomer values of 95% or greater are assessed as low aggregation.
Aggregation levels were assessed during the conjugation to a test antibody. Conjugation was performed as described above for ADC-1.
During conjugation, we are ideally targeting a monomer content or percentage monomer of 95% or above. Low percentage monomer values usually translate to a higher degree of aggregation. One could therefore agree that percentage monomer values of 95% or higher mean very low levels of aggregation or none, whereas values below this threshold often translate to higher levels of aggregation.

[2] = RP-HPLC retention time correlated with hydrophobicity; type: physicochemical; details: high Rt = hydrophobic, low Rt = hydrophilic
Procedure: • Column: Phenomenex Gemini NX 5 m, C18, 110Å, 150×4.6 mm • Instrument: Shimadzu LC-2030 • Mobile phase: A) water (0.05% TFA), B) acetonitrile (0.05% TFA) • Gradient: 20-70% B over 15 min, flow 1.0 mL/min
A correlation study was also carried out using Reverse-Phase HPLC (RP-HPLC). The two constructs were injected in RP-HPLC and retention times (Rt) correlated with hydrophobicity—i.e., high Rt was associated to hydrophobic constructs whereas low Rt to hydrophilic ones.

topo I/DNA complex = target: T1, topo I/DNA complex (Homo sapiens, UniProt P11387); details: versus SN38 (the active metabolite of irinotecan); cited from earlier work
T1 sequence (P11387 1-765): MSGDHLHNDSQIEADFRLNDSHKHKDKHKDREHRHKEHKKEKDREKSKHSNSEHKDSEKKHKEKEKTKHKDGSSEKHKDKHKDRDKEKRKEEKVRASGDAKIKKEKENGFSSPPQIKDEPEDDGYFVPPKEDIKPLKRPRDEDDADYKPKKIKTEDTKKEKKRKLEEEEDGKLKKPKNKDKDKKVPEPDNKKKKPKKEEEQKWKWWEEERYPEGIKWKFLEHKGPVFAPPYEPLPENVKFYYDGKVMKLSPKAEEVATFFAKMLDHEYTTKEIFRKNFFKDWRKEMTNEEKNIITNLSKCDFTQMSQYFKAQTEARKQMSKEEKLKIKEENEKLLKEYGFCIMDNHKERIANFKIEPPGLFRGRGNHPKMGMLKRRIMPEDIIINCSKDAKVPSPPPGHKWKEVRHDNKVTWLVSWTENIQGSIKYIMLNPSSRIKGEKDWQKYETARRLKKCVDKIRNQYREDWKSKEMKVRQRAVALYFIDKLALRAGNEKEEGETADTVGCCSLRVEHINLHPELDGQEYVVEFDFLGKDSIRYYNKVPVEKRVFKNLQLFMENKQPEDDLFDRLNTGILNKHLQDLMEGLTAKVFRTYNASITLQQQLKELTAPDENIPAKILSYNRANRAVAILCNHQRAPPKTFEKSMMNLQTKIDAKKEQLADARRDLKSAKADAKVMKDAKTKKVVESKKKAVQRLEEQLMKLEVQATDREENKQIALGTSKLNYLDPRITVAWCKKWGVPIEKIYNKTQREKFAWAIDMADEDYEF

a variety of cell lines = details: versus SN38; cited from earlier work

Row | SMILES | Aggregation (% monomer) ([1]; SEC, 95% or greater = low aggregation) | Aggregation ([1]; grade in words) | Rt [2] [min] | potency relative to SN38 at stabilizing the topo I/DNA complex (topo I/DNA complex) | potency relative to SN38 as a cytotoxin (a variety of cell lines)
1 | CC[C@@]1(O)C(=O)OCc2c1cc1n(c2=O)Cc2c-1nc1cc(F)c(C)c3c1c2[C@@H](NC(=O)OCc1ccc(NC(=O)[C@H](C)NC(=O)[C@@H](NC(=O)CNC(=O)CNC(=O)CNC(=O)CNC(=O)CNC(=O)CCN2C(=O)C=CC2=O)C(C)C)cc1)CC3 [Mal-Gly5-VA-PABC-Exatecan] ({Propanoyl(3-maleimido)}-GGGGGVA[PABC]-Exatecan) | (98%) | None | 9.76 |  | 
2 | CC[C@@]1(O)C(=O)OCc2c1cc1n(c2=O)Cc2c-1nc1cc(F)c(C)c3c1c2[C@@H](N)CC3 [Exatecan] |  |  |  | about 2.5 fold | about 2.5 fold
